Experimental data reported in PMC10051811, “Plasma and Cerebrospinal Fluid Concentrations of Micafungin Administered at High Doses in Critically Ill Infants with Systemic Candidiasis: A Pooled Analysis of Two Studies” (Pharmaceuticals, 2023).
Read-outs that look alike come from different tables or passages of the source. *1 amine or outer side, *2 acyl side, *3 side chain or, on linkers, in order; H or OH if unused. Where a SMILES comes first, the peptide text is derived from it. Bridges are numbered along the chain shown (N, C = ends). [ ]: non-standard residue; d: D form. The star is where a group is joined. hTyr(3S-OH,4S-OH,3'-OSO3H) = N[C@H](C(=O)O)[C@H](O)[C@@H](O)c1ccc(O)c(OS(=O)(=O)O)c1; Orn(4R-OH,5R-OH) = O=C([C@H](C[C@@H](O)[C@@H](O)N[*:3])N[*:1])[*:2]; Pro(3S-OH,4S-Me) = C[C@H]1CN[C@H](C(=O)O)[C@H]1O; X1 = CCCCCOc1ccc(-c2cc(-c3ccc(C(=O)*)cc3)no2)cc1; Gln(3R-OH) = NC(=O)C[C@@H](O)[C@H](N)C(=O)O; Hyp = O=C(O)[C@@H]1C[C@@H](O)CN1

What was measured:
[1] = Micafungin plasma pharmacokinetics in neonates and young infants (HPLC); format: in vivo, human; conditions: for level at 1 h: read-out: Plasma values after 1 h; for level at 8 h: read-out: Plasma values after 8 h; for level at -1 h: read-out: Plasma values before infusion
Protocol: (§1) The dosage was formulated as a 2 mg/mL solution in 0.9% saline solution and administered intravenously over 1 h once daily. Infants who died within the first 48 h and those with acute or chronic hepatic diseases and/or known hypersensitivity to echinocandins were excluded. Each study with specific inclusion/exclusion criteria and definitions has been described in detail elsewhere.
(§2) Micafungin plasma and CSF concentrations were measured 1 h before and 1, 2, and 8 h after the end of the infusion. Sampling overlapped with those required for the clinical monitoring of these critical children. Blood samples were collected via heel puncture, using 0.3 mL capillary microtubes with EDTA, between Days 3 and 10 of micafungin therapy. Five minutes prior to sampling, the heel was warmed with a hot compress (40 °C), and puncture was performed using a Gentleheel incision device (Cardinal Health, Dublin, OH, USA) at alternate sites per timepoint. Blood picked up was centrifuged at 3000× g, and the plasma residue was stored at 4 °C until analyzed within 6 h or frozen at −20 °C and analyzed within 7 days, as previously reported. Drug concentrations were measured via high-performance liquid chromatography (HPLC). An HPLC method with a diode array detector was validated to fine-tune the measurement on small amounts of plasma (0.3 mL whole blood).
Moreover, we assessed the optimal dosage to obtain systemic drug exposure equivalent to that considered to be effective in adult patients. Systemic drug exposure was assessed via the area under the curve for 24 h (AUC0–24), the plasma clearance (CL), and the half-life. Results were stratified according to chronological age.

[2] = Micafungin concentrations in cerebrospinal fluid of infants with Candida meningitis (HPLC); format: in vivo; conditions: human, iv; for Kp at 1 h / Kp at 8 h / Kp: CSF (ratio to plasma); for Kp at 1 h: read-out: CSF/plasma ratio after 1 h; for Kp at 8 h: read-out: CSF/plasma ratio after 8 h; for Kp: read-out: CSF/plasma ratio before infusion; for level at 1 h / level at 8 h / level at -1 h: cerebrospinal fluid, HPLC; for level at 1 h: read-out: CSF values after 1 h; for level at 8 h: read-out: CSF values after 8 h; for level at -1 h: read-out: CSF values before infusion
Protocol: as §2, with “blood). […]” for “blood).”

[3] = test system: invasive candidiasis; test: Microbiological and clinical success of micafungin therapy in infants with invasive candidiasis; format: in vivo, human; conditions: 8-15 mg/kg/day iv
Protocol: For this pooled analysis, we included data from a total of fifty-three neonates enrolled, aged ≤180 days (from the gestational age corrected at 37 weeks), affected with proven or suspected systemic candidiasis, whereby 3 of them had meningitis, who were treated for at least 14 days with micafungin (Mycamine®) at a dosage ranging from 8 to 15 mg/kg/day intravenously.
as §1

[4] = Treatment-emergent adverse events (TEAEs) in treated infants; format: in vivo, human
Protocol: In order to evaluate drug safety, we analyzed treatment-emergent adverse effects (TEAEs). TEAEs were defined as an adverse effect experienced any time during the study’s drug administration to 72 h after the last dose of the study drug. A reasonable possibility that the event could have been caused by the study drug was assessed by the investigators; if the relationship was missing, it was considered to be drug-related.

[5] = ref 1 (Yanni et al.), cited from earlier work
Protocol: Yanni et al. observed an increased clearance of micafungin in infants and children: 40–80 mL/h/kg in premature infants and 20 mL/h/kg in children >4 months of age.

[6] = rabbit model of neonatal HCME; highest concentrations within meninges and choroid; ref 2 (Hope et al.); cited from earlier work
From the text: In extremely low-birth-weight infants (<1 kg at birth) with invasive candidiasis, the probability of the central nervous system involvement during infection varies from 45% to 63% of cases. Micafungin concentration values in CSF are difficult to obtain if an external shunt has not been placed previously. Moreover, interpreting these values in vivo is not easy, considering that the fungal involvement of the central nervous system in neonatal age is typically hematogenous Candida meningoencephalitis (HCME). Hope et al. studied the pharmacokinetics and pharmacodynamics of micafungin in a r ...

[7] = human, iv, 7 mg/kg/day, Patient 1, dose 7 mg/kg/day iv, HPLC
[8] = human, iv, 8 mg/kg/day, Patient 3, dose 8 mg/kg/day iv, HPLC
[9] = human, iv, 10 mg/kg/day, Patient 1, dose 10 mg/kg/day iv, HPLC
[10] = human, iv, 10 mg/kg/day, Patient 2, dose 10 mg/kg/day iv, HPLC
[11] = human, iv, 15 mg/kg/day, Patient 2, dose 15 mg/kg/day iv, HPLC
[12] = 7 mg/kg/day, Patient 1, dose 7 mg/kg/day iv
[13] = 8 mg/kg/day, Patient 3, dose 8 mg/kg/day iv
[14] = 10 mg/kg/day, Patient 1, dose 10 mg/kg/day iv
[15] = 10 mg/kg/day, Patient 2, dose 10 mg/kg/day iv
[16] = 15 mg/kg/day, Patient 2, dose 15 mg/kg/day iv

SMILES: CCCCCOc1ccc(-c2cc(-c3ccc(C(=O)N[C@H]4C[C@@H](O)[C@@H](O)NC(=O)[C@@H]5[C@@H](O)[C@@H](C)CN5C(=O)[C@H]([C@H](O)CC(N)=O)NC(=O)[C@H]([C@H](O)[C@@H](O)c5ccc(O)c(OS(=O)(=O)O)c5)NC(=O)[C@@H]5C[C@@H](O)CN5C(=O)[C@H]([C@@H](C)O)NC4=O)cc3)no2)cc1 [micafungin] (X1-[Orn(4R-OH,5R-OH)]T[Hyp][hTyr(3S-OH,4S-OH,3'-OSO3H)][Gln(3R-OH)][Pro(3S-OH,4S-Me)]; lactam 1-C)
- half-life ([1]; age 0 to ≤28 days (n = 16), 8-15 mg/kg/day iv, mean ± SD, SD): 13.5 ± 7.6 h
- Clearance/weight ([1]; age >28 days ≤120 days (n = 23), 8-15 mg/kg/day iv, mean ± SD, SD): 0.6 ± 0.167 mL/min/kg
- level at 1 h [1, 7]: 15600 ng/mL
- level at 8 h [1, 7]: 8900 ng/mL
- level at -1 h [1, 7]: 2900 ng/mL
- level at 1 h [1, 8]: 27000 ng/mL
- level at 8 h [1, 8]: 16800 ng/mL
- level at -1 h [1, 8]: 9120 ng/mL
- level at 1 h [1, 9]: 21700 ng/mL
- level at 8 h [1, 9]: 6580 ng/mL
- level at -1 h [1, 9]: 3200 ng/mL
- level at 1 h [1, 10]: 17400 ng/mL
- level at 8 h [1, 10]: 8900 ng/mL
- level at -1 h [1, 10]: 6700 ng/mL
- level at 1 h [1, 11]: 21900 ng/mL
- level at 8 h [1, 11]: 12200 ng/mL
- level at -1 h [1, 11]: 5800 ng/mL
- clearance ([1]; human, iv, age 0 to ≤28 days (n = 16), 8-15 mg/kg/day iv over 1 h once daily, HPLC, mean ± SD, SD, read-out: Clearance (converted)): 1.2 mL/min
- clearance ([1]; human, iv, age 0 to ≤28 days (n = 16), 8-15 mg/kg/day iv, mean ± SD, SD, read-out: Clearance/weight (converted)): 0.6 mL/min/kg
- clearance ([1]; human, iv, age >28 days ≤120 days (n = 23), 8-15 mg/kg/day iv over 1 h once daily, HPLC, mean ± SD, SD, read-out: Clearance (converted)): 1.45 mL/min
- half-life ([1]; human, iv, age >28 days ≤120 days (n = 23), 8-15 mg/kg/day iv, mean ± SD, SD, read-out: Half-life (converted)): 13.4 ± 4.3 h
- clearance ([1]; human, iv, age >120 days (n = 13), 8-15 mg/kg/day iv over 1 h once daily, HPLC, mean ± SD, SD, read-out: Clearance (converted)): 1.82 mL/min
- clearance ([1]; human, iv, age >120 days (n = 13), 8-15 mg/kg/day iv, mean ± SD, SD, read-out: Clearance/weight (converted)): 0.467 mL/min/kg
- half-life ([1]; human, iv, age >120 days (n = 13), 8-15 mg/kg/day iv, mean ± SD, SD, read-out: Half-life (converted)): 14.4 ± 4.2 h
- AUC(0-t) ([1]; human, iv, plasma AUC0–24, age 0 to ≤28 days (n = 16), 8-15 mg/kg/day iv, mean ± SD, SD): 259 ± 92.7 µg·h/mL
- AUC(0-t) ([1]; human, iv, plasma AUC0–24, age >28 days ≤120 days (n = 23), 8-15 mg/kg/day iv, mean ± SD, SD): 237 ± 63.9 µg·h/mL
- AUC(0-t) ([1]; human, iv, plasma AUC0–24, age >120 days (n = 13), 8-15 mg/kg/day iv, mean ± SD, SD): 346 ± 145 µg·h/mL
- Kp at 1 h [2, 12]: 0.01
- Kp at 8 h [2, 12]: 0.02
- Kp [2, 12]: 0.05
- Kp at 1 h [2, 13]: 0.06
- Kp at 8 h [2, 13]: 0.08
- Kp [2, 13]: 0.22
- Kp at 1 h [2, 14]: 0.06
- Kp at 8 h [2, 14]: 0.19
- Kp [2, 14]: 0.38
- Kp at 1 h [2, 15]: 0.03
- Kp at 8 h [2, 15]: 0.03
- Kp [2, 15]: 0.06
- Kp at 1 h [2, 16]: 0.05
- Kp at 8 h [2, 16]: 0.07
- Kp [2, 16]: 0.16
- level at 1 h [2, 12]: 150 ng/mL
- level at 8 h [2, 12]: 150 ng/mL
- level at -1 h [2, 12]: 150 ng/mL
- level at 1 h [2, 13]: 1700 ng/mL
- level at 8 h [2, 13]: 1300 ng/mL
- level at -1 h [2, 13]: 2000 ng/mL
- level at 1 h [2, 14]: 1230 ng/mL
- level at 8 h [2, 14]: 1230 ng/mL
- level at -1 h [2, 14]: 1230 ng/mL
- level at 1 h [2, 15]: 500 ng/mL
- level at 8 h [2, 15]: 300 ng/mL
- level at -1 h [2, 15]: 400 ng/mL
- level at 1 h [2, 16]: 1100 ng/mL
- level at 8 h [2, 16]: 800 ng/mL
- level at -1 h [2, 16]: 900 ng/mL
- Clinical recovery ([3]; infants with systemic candidiasis): all infants clinically recovered
- Microbiological success of the therapy ([3]; subjects with invasive candidiasis, mean treatment duration 16.7 days, 95% CI = 51.2–97.9): 83.3%
- Patients with overall treatment-emergent adverse events (TEAEs) ([4]; 53 infants, 8-15 mg/kg/day iv, thirty-four patients): 64.2%
- Patients with transient hypertransaminasaemia ([4]; 53 infants, one patient, drug-related TEAE): 1.9%
- Drug-related TEAEs (not serious) ([4]; 53 infants, three TEAEs): 5.7%
- TEAEs leading to death (septic shock, not drug-related) ([4]; 53 infants, three cases): 5.7%
- Patients with transiently increased levels of gamma-glutamyltransferase ([4]; 53 infants, two patients, drug-related TEAE): 3.8%
- Serious adverse events related to the therapy ([4]; high doses 8–15 mg/kg/day in neonates and infants): no serious adverse events
- clearance ([5]; children >4 months of age): 0.333 mL/min/kg
- clearance ([5]; premature infants): 0.667 to 1.33 mL/min/kg
- Detection of micafungin within the CSF [6]: not reliably detected
